{
  "source": "patent EP0454444A1",
  "about": "“Glutarimide derivatives and herbicides” (NISSAN CHEMICAL INDUSTRIES LTD., priority 1990, dated 1991)",
  "assay_in_all_cases": "Herbicidal effect test by soil treatment",
  "type_in_all_cases": "in vivo",
  "key": {"[1]": {"system": "annual sedge (Cyperus microiria)", "details": "three weeks after spraying", "outline": "(§1)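 Mixed seeds sown in sterilized diluvial soil, covered ~1 cm; herbicide diluted in water, sprayed on soil surface at predetermined a.i. rates; read-out at 3 wk as top fresh weight vs untreated control.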"}, "[2]": {"system": "barnyardgrass (Echinochloa crusgalli)", "details": "three weeks after spraying", "outline": "as §1"}, "[3]": {"system": "black nightshade (Solanum nigrum L.)", "details": "three weeks after spraying", "outline": "as §1"}, "corn (Zea mays)": {"system": "corn (Zea mays)", "details": "crop plant, three weeks after spraying", "outline": "as §1"}, "[4]": {"system": "cotton (Gossypium herbaceum)", "details": "crop plant, three weeks after spraying", "outline": "as §1"}, "[5]": {"system": "hairly galinosoga (Galinsoga ciliat)", "details": "three weeks after spraying", "outline": "as §1"}, "[6]": {"system": "large crabgrass (Digitaria adscendens)", "details": "three weeks after spraying", "outline": "as §1"}, "rice (Oryza sativa)": {"system": "rice (Oryza sativa)", "details": "crop plant, three weeks after spraying", "outline": "as §1"}, "[7]": {"system": "rorippa ssp. (Rorippa atrovirens)", "details": "three weeks after spraying", "outline": "as §1"}, "soybean (Glysine max)": {"system": "soybean (Glysine max)", "details": "crop plant, three weeks after spraying", "outline": "as §1"}, "[8]": {"system": "wheat (Triticum aestivum)", "details": "crop plant, three weeks after spraying", "outline": "as §1"}},
  "data": [
    {"molecule": "O=C1CC(C(F)(F)F)CC(=O)N1Cc1ccc(Cl)cc1", "note": "[1-31]", "values": [
      {"measurement": "herbicidal effect, K (Cyperus microiria)", "setting": "[1]; application amount 6.3 g/a", "result": "5 (Growth control,rates of more than 90% (almost completely withered))"},
      {"measurement": "herbicidal effect, N (Echinochloa crusgalli)", "setting": "[2]; application amount 6.3 g/a", "result": "4 (Growth control rates of 70 to 90%)"},
      {"measurement": "herbicidal effect, H (Solanum nigrum L.)", "setting": "[3]; application amount 6.3 g/a", "result": "5 (Growth control,rates of more than 90% (almost completely withered))"},
      {"measurement": "herbicidal effect, T (Zea mays)", "setting": "corn (Zea mays); application amount 6.3 g/a", "result": "0 (Growth control rates of less than 5% (substantially no effect))"},
      {"measurement": "herbicidal effect, C (Gossypium herbaceum)", "setting": "[4]; application amount 6.3 g/a", "result": "0 (Growth control rates of less than 5% (substantially no effect))"},
      {"measurement": "herbicidal effect, D (Galinsoga ciliat)", "setting": "[5]; application amount 6.3 g/a", "result": "5 (Growth control,rates of more than 90% (almost completely withered))"},
      {"measurement": "herbicidal effect, M (Digitaria adscendens)", "setting": "[6]; application amount 6.3 g/a", "result": "4 (Growth control rates of 70 to 90%)"},
      {"measurement": "herbicidal effect, R (Oryza sativa)", "setting": "rice (Oryza sativa); application amount 6.3 g/a", "result": "0 (Growth control rates of less than 5% (substantially no effect))"},
      {"measurement": "herbicidal effect, I (Rorippa indica)", "setting": "[7]; application amount 6.3 g/a", "result": "5 (Growth control,rates of more than 90% (almost completely withered))"},
      {"measurement": "herbicidal effect, S (Glysine max)", "setting": "soybean (Glysine max); application amount 6.3 g/a", "result": "0 (Growth control rates of less than 5% (substantially no effect))"},
      {"measurement": "herbicidal effect, W (Triticum vulgare)", "setting": "[8]; application amount 6.3 g/a", "result": "0 (Growth control rates of less than 5% (substantially no effect))"}
    ]},
    {"molecule": "CCOC(=O)Nc1cc(N2C(=O)CC(C(F)(F)F)CC2=O)c(F)cc1Cl", "note": "[1-35]", "values": [
      {"measurement": "herbicidal effect, K (Cyperus microiria)", "setting": "[1]; application amount 1.6 g/a", "result": "5 (Growth control,rates of more than 90% (almost completely withered))"},
      {"measurement": "herbicidal effect, N (Echinochloa crusgalli)", "setting": "[2]; application amount 1.6 g/a", "result": "4 (Growth control rates of 70 to 90%)"},
      {"measurement": "herbicidal effect, H (Solanum nigrum L.)", "setting": "[3]; application amount 1.6 g/a", "result": "5 (Growth control,rates of more than 90% (almost completely withered))"},
      {"measurement": "herbicidal effect, T (Zea mays)", "setting": "corn (Zea mays); application amount 1.6 g/a", "result": "0 (Growth control rates of less than 5% (substantially no effect))"},
      {"measurement": "herbicidal effect, C (Gossypium herbaceum)", "setting": "[4]; application amount 1.6 g/a", "result": "0 (Growth control rates of less than 5% (substantially no effect))"},
      {"measurement": "herbicidal effect, D (Galinsoga ciliat)", "setting": "[5]; application amount 1.6 g/a", "result": "5 (Growth control,rates of more than 90% (almost completely withered))"},
      {"measurement": "herbicidal effect, M (Digitaria adscendens)", "setting": "[6]; application amount 1.6 g/a", "result": "5 (Growth control,rates of more than 90% (almost completely withered))"},
      {"measurement": "herbicidal effect, R (Oryza sativa)", "setting": "rice (Oryza sativa); application amount 1.6 g/a", "result": "0 (Growth control rates of less than 5% (substantially no effect))"},
      {"measurement": "herbicidal effect, I (Rorippa indica)", "setting": "[7]; application amount 1.6 g/a", "result": "5 (Growth control,rates of more than 90% (almost completely withered))"},
      {"measurement": "herbicidal effect, S (Glysine max)", "setting": "soybean (Glysine max); application amount 1.6 g/a", "result": "0 (Growth control rates of less than 5% (substantially no effect))"},
      {"measurement": "herbicidal effect, W (Triticum vulgare)", "setting": "[8]; application amount 1.6 g/a", "result": "1 (Growth control rates of 5 to 20%)"}
    ]}
  ]
}
